Measurements reported in patent US20250003952A1, “SENOLYTIC DRUG SCREENING METHOD AND SENOLYTIC DRUG” (KYOTO UNIVERSITY, priority 2021, published 2025).

Legend:
caspase-3 = test: Apoptosis by Western blotting of fragmented caspase-3 in young and senescent IMR90 cells; type: cell-based, human; conditions: different concentrations for 72 hours
Source text: Ras gene with oncogenic mutation was introduced into young cells (within 1 month of continuous culture) of IMR90 cells by retroviral infection to acquire stress senescent cells.

PGAM-Chk1 binding [1] = molecular target: T1, PGAM-Chk1 binding (Homo sapiens, UniProt O14757+P18669); test: Nano-Bit PGAM-Chk1 binding in cancer cell line H1299; type: cell-based; conditions: H1299 cells; 40 μM for 12, 24, and 48 hours
T1 construct: expressed in transfected cells
T1 sequence (P18669 whole entry): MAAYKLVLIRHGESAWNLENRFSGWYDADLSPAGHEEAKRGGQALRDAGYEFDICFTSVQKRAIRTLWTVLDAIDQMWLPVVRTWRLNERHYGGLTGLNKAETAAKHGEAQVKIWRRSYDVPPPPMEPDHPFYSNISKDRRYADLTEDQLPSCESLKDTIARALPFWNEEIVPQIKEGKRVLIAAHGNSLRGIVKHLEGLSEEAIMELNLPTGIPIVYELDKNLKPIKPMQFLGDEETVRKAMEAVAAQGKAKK
T1 sequence (O14757 whole entry): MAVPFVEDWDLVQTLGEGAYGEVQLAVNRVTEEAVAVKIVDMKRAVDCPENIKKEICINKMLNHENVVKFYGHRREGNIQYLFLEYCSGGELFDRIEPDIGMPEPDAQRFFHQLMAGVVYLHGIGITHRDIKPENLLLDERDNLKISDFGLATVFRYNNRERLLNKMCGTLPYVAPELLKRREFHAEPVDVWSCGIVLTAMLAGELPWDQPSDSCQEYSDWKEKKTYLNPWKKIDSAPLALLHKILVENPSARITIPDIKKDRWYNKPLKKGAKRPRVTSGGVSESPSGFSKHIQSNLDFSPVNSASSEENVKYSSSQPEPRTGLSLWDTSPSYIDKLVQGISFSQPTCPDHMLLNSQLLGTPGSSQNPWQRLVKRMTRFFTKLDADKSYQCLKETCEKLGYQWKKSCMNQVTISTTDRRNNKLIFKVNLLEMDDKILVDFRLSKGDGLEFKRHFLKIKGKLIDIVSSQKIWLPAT
Source text: PGAM and Chk1 kinase genes tagged with Nano-Bit tags were introduced into the cancer cell line H1299 to prepare a cell line capable of stable expression. […] The treated cells were used to measure intracellular luciferase luminescence signals by Nano-Bit for each.

PGAM-Chk1 binding [2] = molecular target: T1, PGAM-Chk1 binding; test: Nano-Bit PGAM-Chk1 binding in young and etoposide-induced senescent IMR90 cells; type: cell-based; conditions: etoposide-induced senescent IMR90 cells; 20 μM or 40 μM for 48 hours
Protocol: In addition, PGAM and Chk1 kinase genes tagged with Nano-Bit tags were introduced into IMR90 cells to prepare a cell line capable of stable expression Young cells (within 1 month of continuous culture) of the IMR90 cells were treated with 100 uM etoposide for 48 hours to induce cellular senescence.

aged C57BL/6 mice = test: Nutlin 3b administration to aged mice for 2 months, RT-PCR of senescence and inflammation markers; type: in vivo, mouse; conditions: 90 weeks, 11.63 mg/kg intraperitoneal once a week for 2 months
Protocol: Specifically, 16 aged C57BL/6 mice at 90 weeks of age were provided. The mice were divided into two groups (control: 8 mice, agent group: 8 mice), and intraperitoneal injection administration once a week was continued for 2 months. […] One week after the end of the last administration, all mice were dissected, and RNA was extracted from each organ. Senescence markers and inflammation markers were evaluated by RT-PCR.

IMR90 cells = test: Senolysis / cell death of young and Ras-induced senescent IMR90 cells; type: cell-based, human
Source text: Ras gene with oncogenic mutation was introduced into young cells (within 1 month of continuous culture) of IMR90 cells by retroviral infection to acquire senescent cells. […] The control received only DMSO treatment. Representative images of cells observed under a microscope are shown (FIG. 11).
An oncogenic mutated Ras gene was introduced into young cells (within 1 month of continuous culture) of IMR90 cells by retroviral infection to acquire stress-induced senescent cells. The young cells and the senescent cells were both treated with different concentrations of the RSK kinase inhibitor BI-D1870 for 96 hours to evaluate cell death.
An oncogenic mutated Ras gene was introduced into young cells (within 1 month of continuous culture) of IMR90 cells by retroviral infection to acquire stress-induced senescent cells. The young cells and the senescent cells of IMR90 were both transfected with an RSK1 siRNA (two types of siRNA #1 (SEQ ID NO: 7) or #2 (SEQ ID NO: 8) having different target sequences) or a control to knock down RSK1. Representative images of cells observed under a microscope are shown (upper diagram in FIG. 20).
An oncogenic Ras was introduced into young cells (within 1 month of continuous culture) of IMR90 cells to induce senescent cells (OIS). The young cells and the senescent cells of IMR90 were transfected with two HIF-2α-specific siRNAs (SEQ ID NO: 9 and SEQ ID NO: 10) having different target sequences to knock down HIF-2α.
An oncogenic Ras was introduced into young cells (within 1 month of continuous culture) of IMR90 cells to induce senescent cells (OIS). The young cells and the senescent cells of IMR90 were transfected with a BIM-specific siRNA to knock down BIM.
An oncogenic Ras was introduced into young cells (within 1 month of continuous culture) of IMR90 cells to induce senescent cells (OIS). In the young cells and the senescent cells of IMR90, HIF-2α alone or both HIF-2α and BIM were knocked down by using their respective specific siRNAs (SEQ ID NO: 9, SEQ ID NO: 10), and cell death was confirmed (FIG. 28).
The latter information consists of 12,655 ChIP datasets from 903 antigens (transcription factors and epigenetic regulators).

glycolytic metabolism = test: Glycolytic metabolism (glucose consumption, lactate production) in etoposide-induced senescent IMR90 cells; type: cell-based, human; conditions: 20 μM or 40 μM for 48 hours
Protocol: Next, young cells (within 1 month of continuous culture) of the IMR90 cells were treated with 100 μM etoposide for 48 hours to acquire senescent cells. […] After the nutlin treatment, the medium was collected, and glucose consumption was evaluated and lactate production was measured. The lactate level is calculated as a value (μmol/mg/h) obtained by measuring the amount of lactate secreted into the medium per hour (μmol/h) and correcting the same by the total cell protein (mg) and is expressed as a value relative to the actual value on day 0. The glucose consumption is calculated as a value (μmol/mg/h) obtained by measuring the amount of glucose decreased from the medium per hour (μmol/h) and correcting the same by the total cell protein (mg) and is expressed as a value relative to the actual value on day 0. Glucose and lactate were measured by using a Glucose assay kit (BioVision) (upper diagram in FIG. 8) and a Lactate assay kit (BioVision) (lower diagram in FIG. 8), respectively.

[3] = tested on: Twenty-month-old C57BL/6 mice; test: Nutlin 3b administration to aged mice for 3 months; type: in vivo, mouse
Source text: The vehicle group was given a solvent alone on the same schedule.

[4] = 11.62 mg/kg intraperitoneal once a week for 3 months

## COc1ccc(C2=N[C@H](c3ccc(Cl)cc3)[C@H](c3ccc(Cl)cc3)N2C(=O)N2CCNC(=O)C2)c(OC(C)C)c1 [nutlin 3b]
caspase-3; Ras-induced senescent IMR90 cells
  caspase-3 fragmentation: dose-dependent fragmentation of caspase 3
caspase-3; young IMR90 cells
  caspase-3 fragmentation: did not cause caspase-3 fragmentation
PGAM-Chk1 binding [1]
  luciferase luminescence signal by Nano-Bit (PGAM-Chk1 binding): treatment time-dependent decrease
PGAM-Chk1 binding [2]
  potentiation of PGAM-Chk1 binding (intracellular luminescence signals of Nano-Bit): suppressed by the nutlin 3b treatment in a dose-dependent manner
Aged C57BL/6 mice
  inflammatory markers (RT-PCR, organs): reduced
  senescence markers (RT-PCR, organs): reduced
IMR90 cells; IMR90 cells transfected with BIM-specific siRNA, nutlin 3b 96 hours
  senolysis by nutlin 3b treatment in BIM knockdown cells: rescued by BIM knockdown
IMR90 cells; young and Ras-induced senescent IMR90 cells, 40 μM for 72 hours
  cell death observed under a microscope: young cells are normal, but senescent cells selectively die
IMR90 cells; young and senescent IMR90 cells, 96 hours, 20 or 40 μM
  senolytic effect (cell death): remarkable senolytic effect
Glycolytic metabolism
  glucose consumption: suppressed in a dose-dependent manner
  lactate production: suppressed in a dose-dependent manner
[3]; [4]
  lactate level (plasma): improved
  liver function marker plasma albumin level: improved
  muscle strength (wire hang test): improved
  renal function marker plasma BUN: improved
  renal function marker plasma creatinine: improved
[3]; 11.62 mg/kg once a week for 3 months
  degree of cellular senescence in adipose tissue (SA ß-Gal staining): improved
[3]; histochemical analysis, 11.62 mg/kg once a week for 3 months
  p21-positive cells in the liver: significantly decreased
[3]; liver mRNA, 11.62 mg/kg once a week for 3 months
  SASP factors (IL6, CXCL1, TNFα, and CCL5): reductions
[3]; liver, 11.62 mg/kg once a week for 3 months
  F4/F80-positive cells (macrophage infiltration): reduced
